Measured values taken from patent US10966993B2, “Pharmaceutical composition comprising a sulfonylurea drug and preparation method thereof” (JIANGSU AOSAIKANG PHARMACEUTICAL CO., LTD., priority 2016, dated 2021).
≈ marks a conversion by molar mass, not a printed value. Read-outs that look alike come from different tables or passages of the source.

Columns and labels:
[1] = Test on the solubility of glibenclamide in additive/cyclodextrin solutions; assay type: physicochemical; details: for solubility at 1 h: 25 °C, aqueous with cosolvent or surfactant or cyclodextrin, thermodynamic from solid; for Solubility: 25° C.
Procedure: An excess amount of glibenclamide powder was added into an aqueous solution comprising different proportion of additive (e.g., meglumine, sodium carbonate, sodium hydrogen carbonate or sodium hydroxide) and cyclodextrin (hydroxypropyl-β-cyclodextrin) to form a suspension. The suspension was placed in a constant shaking incubator, and shaken for 1 h at 25±1° C. The shaken suspension was filtered with a 0.45 μm hydrophilic filter membrane, with the primary filtrate being disposed and the subsequent filtrate being collected. The subsequent filtrate was diluted to appropriate times with a PBS buffer having a pH of 7.4, the absorbance of the diluted subsequent filtrate was determined at a wavelength of 225 nm, and the solubility of glibenclamide in the diluted subsequent filtrate was calculated according to the absorbance. Corresponding solubility curves were plotted with the solubility of glibenclamide as the vertical axis and the concentration of cyclodextrin and/or meglumine as the horizontal axis.

MCAO rats = assay: Neurobehavioral scoring (Longa) in rat MCAO models; assay type: in vivo, Sprague-Dawley (SD) rat; details: for Neurobehavioral score (Longa Scoring, 0-4): n=8, glibenclamide 10 μg/kg ip at ischemia 4 h + 200 ng/h sc for 44 hours
Procedure: 7.2 Experiment Animals: Male Sprague-Dawley (SD) rat, clean grade, weighing at 200˜230 g. The temperature of animal feeding room was maintained at 20˜24° C., the humidity was maintained at 30˜70%; a cycle of lighting on 12 hours/lighting off 12 hours (06:00 AM on, 18:00 PM off) every day was employed. During the experiment, the animals were feed separately, and had free access to water and food.
The test drugs in group GB was formulated as follows: glibenclamide was dissolved in a little DMSO (dimethyl sulfoxide), the resulting solution was diluted to a DMSO concentration of 5 vol % with physiological saline, and the pH of the solution was adjusted to 8˜8.5 with NaOH. By means of the above process, solutions with glibenclamide concentration of 200 μg/ml and 10 μg/ml were respectively formulated.
The test drugs in group H-GB was formulated as follows: Taking the lyophilized product of Example 13, into which was added an appropriate amount of physiological saline and respectively formulated into a solution with a glibenclamide concentration of […].
Rats were rested for about 1 week before the experiment started. On the day of the experiment, the surgical tools were sterilized by autoclaving. The rats were anesthetized by intraperitoneally injecting chloral hydrate (330 mg/kg). The common carotid artery and external carotid artery of the rats were separated, and a sterilized MCAO monofilament was used to insert into the internal carotid artery through the opening of the external carotid artery to a depth of about 18 mm, until the head of the monofilament reached the starting part of the middle cerebral artery, the opening of the external carotid artery was ligatured to fix the monofilament. […] The blood flow in the brain was monitored with a laser Doppler (Model moorVMS-LDF2, Manufacturer moor) respectively pre-operation, post-operation and immediately after reperfusion, and the molding in which the ratio of the postoperative blood flow to the preoperative blood flow was less than 30% was regarded as a qualified molding. […]

COc1ccc(Cl)cc1C(=O)NCCc1ccc(S(=O)(=O)NC(=O)NC2CCCCC2)cc1 [glibenclamide, 5-chloro-N-(4-[N-(cyclohexylcarbamoyl)aminosulfonyl]phenethyl)-2-methoxybenzamide]
solubility at 1 h ([1]; sodium carbonate 0.1% (w/v), 2-hydroxypropyl-β-cyclodextrin 10% (w/v), read-out: Solubility): 6510 µg/mL (≈ 13200 µM)
solubility at 1 h ([1]; sodium carbonate 0.1% (w/v), 2-hydroxypropyl-β-cyclodextrin 20% (w/v), read-out: Solubility): 10600 µg/mL (≈ 21500 µM)
solubility at 1 h ([1]; sodium carbonate 0.1% (w/v), 2-hydroxypropyl-β-cyclodextrin 30% (w/v), read-out: Solubility): 10800 µg/mL (≈ 21800 µM)
solubility at 1 h ([1]; sodium carbonate 0.1% (w/v), 2-hydroxypropyl-β-cyclodextrin 40% (w/v), read-out: Solubility): 10900 µg/mL (≈ 22100 µM)
solubility at 1 h ([1]; sodium carbonate 0.1% (w/v), cyclodextrin from 5% (w/v) to 20% (w/v), read-out: water solubility of glibenclamide): 2350 to 10600 µg/mL (≈ 4760 to 21500 µM)
solubility at 1 h ([1]; sodium carbonate 0.1% (w/v), cyclodextrin from 20% (w/v) to 40% (w/v), read-out: solubility of glibenclamide): ~10600 µg/mL (≈ 21500 µM)
solubility at 1 h ([1]; sodium hydrogen carbonate 4% (w/v), 2-hydroxypropyl-β-cyclodextrin 0.5% (w/v), read-out: Solubility): 320 µg/mL (≈ 648 µM)
solubility at 1 h ([1]; sodium hydrogen carbonate 4% (w/v), 2-hydroxypropyl-β-cyclodextrin 1.25% (w/v), read-out: Solubility): 590 µg/mL (≈ 1190 µM)
solubility at 1 h ([1]; sodium hydrogen carbonate 4% (w/v), 2-hydroxypropyl-β-cyclodextrin 5% (w/v), read-out: Solubility): 1260 µg/mL (≈ 2550 µM)
solubility at 1 h ([1]; sodium hydrogen carbonate 4% (w/v), 2-hydroxypropyl-β-cyclodextrin 10% (w/v), read-out: Solubility): 1690 µg/mL (≈ 3420 µM)
solubility at 1 h ([1]; sodium hydrogen carbonate 4% (w/v), 2-hydroxypropyl-β-cyclodextrin 20% (w/v), read-out: Solubility): 1730 µg/mL (≈ 3500 µM)
solubility at 1 h ([1]; sodium hydrogen carbonate 4% (w/v), 2-hydroxypropyl-β-cyclodextrin 30% (w/v), read-out: Solubility): 1780 µg/mL (≈ 3600 µM)
solubility at 1 h ([1]; sodium hydrogen carbonate 4% (w/v), 2-hydroxypropyl-β-cyclodextrin 40% (w/v), read-out: Solubility): 1750 µg/mL (≈ 3540 µM)
solubility at 1 h ([1]; sodium hydrogen carbonate 4% (w/v), cyclodextrin from 0.5% (w/v) to 10% (w/v), read-out: water solubility of glibenclamide): 320 to 1690 µg/mL (≈ 648 to 3420 µM)
solubility at 1 h ([1]; sodium hydrogen carbonate 4% (w/v), cyclodextrin from 10% (w/v) to 40% (w/v), read-out: solubility of glibenclamide): ~1690 µg/mL (≈ 3420 µM)
solubility at 1 h ([1]; sodium hydroxide 0.01% (w/v), 2-hydroxypropyl-β-cyclodextrin 1.25% (w/v), read-out: Solubility): 370 µg/mL (≈ 749 µM)
solubility at 1 h ([1]; sodium hydroxide 0.01% (w/v), 2-hydroxypropyl-β-cyclodextrin 2.5% (w/v), read-out: Solubility): 640 µg/mL (≈ 1300 µM)
solubility at 1 h ([1]; sodium hydroxide 0.01% (w/v), 2-hydroxypropyl-β-cyclodextrin 5% (w/v), read-out: Solubility): 810 µg/mL (≈ 1640 µM)
solubility at 1 h ([1]; sodium hydroxide 0.01% (w/v), 2-hydroxypropyl-β-cyclodextrin 10% (w/v), read-out: Solubility): 1260 µg/mL (≈ 2550 µM)
solubility at 1 h ([1]; sodium hydroxide 0.01% (w/v), 2-hydroxypropyl-β-cyclodextrin 30% (w/v), read-out: Solubility): 1240 µg/mL (≈ 2510 µM)
solubility at 1 h ([1]; sodium hydroxide 0.01% (w/v), 2-hydroxypropyl-β-cyclodextrin 40% (w/v), read-out: Solubility): 1350 µg/mL (≈ 2730 µM)
solubility at 1 h ([1]; sodium hydroxide 0.01% (w/v), cyclodextrin from 0.5% (w/v) to 10% (w/v), read-out: water solubility of glibenclamide): 140 to 1260 µg/mL (≈ 283 to 2550 µM)
solubility at 1 h ([1]; sodium hydroxide 0.01% (w/v), cyclodextrin from 10% (w/v) to 40% (w/v), read-out: solubility of glibenclamide): ~1260 µg/mL (≈ 2550 µM)
Solubility ([1]; meglumine 0% (w/v), 2-hydroxypropyl-β-cyclodextrin 30% (w/v)): 0.086 mg/mL (≈ 174 µM)
Solubility ([1]; meglumine 0% (w/v), 2-hydroxypropyl-β-cyclodextrin 40% (w/v)): 0.12 mg/mL (≈ 243 µM)
Solubility ([1]; sodium hydrogen carbonate 4% (w/v), 2-hydroxypropyl-β-cyclodextrin 2.5% (w/v)): 0.84 mg/mL (≈ 1700 µM)
Solubility ([1]; sodium hydroxide 0.01% (w/v), 2-hydroxypropyl-β-cyclodextrin 20% (w/v)): 1.30 mg/mL (≈ 2630 µM)
neurobehavioral scores compared with the control (in words) (MCAO rats; at 24 h, 48 h): declines
Neurobehavioral score (Longa Scoring, 0-4) (MCAO rats; scored at ischemia 24 h): 1.75 ± 0.25
Neurobehavioral score (Longa Scoring, 0-4) (MCAO rats; scored at ischemia 48 h): 2.00 ± 0.19
